Source: ChEMBL document CHEMBL3991601, “The target landscape of clinical kinase drugs” (Science, 2017)
Where a name gives a salt, the structure may show the parent alone. The source made the active and inactive calls. Rule as the data show it, for most assays here: actives have a measured Kd and inactives only a lower limit.

Key:
[1] = target: Tyrosine-protein kinase Lyn (Homo sapiens, UniProt P07948)
Pyridoxal kinase = target: T1, Pyridoxal kinase (Homo sapiens, UniProt O00764)
T1 sequence (O00764 whole entry): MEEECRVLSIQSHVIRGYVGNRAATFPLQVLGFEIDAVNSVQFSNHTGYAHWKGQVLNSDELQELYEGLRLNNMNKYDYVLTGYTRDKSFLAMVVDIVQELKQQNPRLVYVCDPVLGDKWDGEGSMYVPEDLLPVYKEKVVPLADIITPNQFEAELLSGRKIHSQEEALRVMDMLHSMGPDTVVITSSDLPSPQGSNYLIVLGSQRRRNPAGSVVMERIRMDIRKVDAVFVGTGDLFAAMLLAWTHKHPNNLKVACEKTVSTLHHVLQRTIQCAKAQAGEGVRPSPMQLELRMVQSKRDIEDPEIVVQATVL

[2] = target: Serine/threonine-protein kinase 16 (Homo sapiens, UniProt O75716)
[3] = target: T2, MAP/microtubule affinity-regulating kinase 4 (Homo sapiens, UniProt Q96L34)
T2 sequence (Q96L34 whole entry): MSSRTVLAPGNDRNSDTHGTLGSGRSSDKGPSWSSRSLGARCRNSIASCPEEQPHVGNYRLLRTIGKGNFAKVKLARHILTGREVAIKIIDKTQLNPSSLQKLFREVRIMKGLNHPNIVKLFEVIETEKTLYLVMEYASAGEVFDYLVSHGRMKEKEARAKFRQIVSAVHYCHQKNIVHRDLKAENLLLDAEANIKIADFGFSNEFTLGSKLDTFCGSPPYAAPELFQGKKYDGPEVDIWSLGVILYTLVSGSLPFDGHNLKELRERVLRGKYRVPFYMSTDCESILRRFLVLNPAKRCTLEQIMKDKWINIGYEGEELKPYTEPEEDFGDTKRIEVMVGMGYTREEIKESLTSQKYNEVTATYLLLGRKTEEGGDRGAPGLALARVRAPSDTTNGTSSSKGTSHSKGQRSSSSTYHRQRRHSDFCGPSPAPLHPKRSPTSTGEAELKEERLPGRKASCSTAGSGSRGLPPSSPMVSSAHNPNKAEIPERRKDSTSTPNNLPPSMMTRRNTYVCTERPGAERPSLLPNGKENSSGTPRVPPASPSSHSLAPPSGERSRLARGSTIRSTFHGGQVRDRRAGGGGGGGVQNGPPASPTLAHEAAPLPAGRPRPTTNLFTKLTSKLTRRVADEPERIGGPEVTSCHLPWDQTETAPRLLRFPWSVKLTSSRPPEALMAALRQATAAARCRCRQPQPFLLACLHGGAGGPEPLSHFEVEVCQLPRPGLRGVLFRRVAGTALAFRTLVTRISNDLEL

[4] = target: T3, Breakpoint cluster region protein (Homo sapiens, UniProt P11274)
T3 sequence (P11274 whole entry): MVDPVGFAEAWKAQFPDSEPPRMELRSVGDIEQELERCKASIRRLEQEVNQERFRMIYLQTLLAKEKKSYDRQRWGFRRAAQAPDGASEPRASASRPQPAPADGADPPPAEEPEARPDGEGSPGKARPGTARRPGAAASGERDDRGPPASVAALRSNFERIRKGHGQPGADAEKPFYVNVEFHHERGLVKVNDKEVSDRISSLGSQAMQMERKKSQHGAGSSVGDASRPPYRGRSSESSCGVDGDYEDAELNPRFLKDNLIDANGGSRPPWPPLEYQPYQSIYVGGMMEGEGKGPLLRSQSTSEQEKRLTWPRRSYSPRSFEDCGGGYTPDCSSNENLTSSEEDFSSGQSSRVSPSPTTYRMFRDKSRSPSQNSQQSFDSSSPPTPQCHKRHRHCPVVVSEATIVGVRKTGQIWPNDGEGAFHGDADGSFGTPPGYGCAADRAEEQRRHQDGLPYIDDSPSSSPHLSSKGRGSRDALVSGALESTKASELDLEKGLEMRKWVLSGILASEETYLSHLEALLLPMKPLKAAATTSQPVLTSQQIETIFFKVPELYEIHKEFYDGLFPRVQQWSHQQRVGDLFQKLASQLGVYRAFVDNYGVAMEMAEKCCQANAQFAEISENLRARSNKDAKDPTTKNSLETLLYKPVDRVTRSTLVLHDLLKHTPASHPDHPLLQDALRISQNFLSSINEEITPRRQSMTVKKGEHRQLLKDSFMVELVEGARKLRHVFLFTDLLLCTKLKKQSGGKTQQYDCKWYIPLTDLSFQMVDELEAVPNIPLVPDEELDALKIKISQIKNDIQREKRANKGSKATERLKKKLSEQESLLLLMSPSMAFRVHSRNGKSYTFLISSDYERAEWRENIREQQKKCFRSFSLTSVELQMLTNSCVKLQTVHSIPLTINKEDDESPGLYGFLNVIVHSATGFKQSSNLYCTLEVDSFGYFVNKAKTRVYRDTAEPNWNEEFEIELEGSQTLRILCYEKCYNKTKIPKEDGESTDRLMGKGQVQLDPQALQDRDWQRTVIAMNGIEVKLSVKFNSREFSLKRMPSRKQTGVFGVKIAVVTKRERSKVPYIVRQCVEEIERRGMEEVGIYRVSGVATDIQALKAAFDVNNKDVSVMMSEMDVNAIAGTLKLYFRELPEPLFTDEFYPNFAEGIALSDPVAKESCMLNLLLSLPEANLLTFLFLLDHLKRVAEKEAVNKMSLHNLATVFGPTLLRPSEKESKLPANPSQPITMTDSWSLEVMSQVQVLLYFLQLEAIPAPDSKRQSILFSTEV

[5] = target: T4, Serine/threonine-protein kinase A-Raf (Homo sapiens, UniProt P10398)
T4 sequence (P10398 whole entry): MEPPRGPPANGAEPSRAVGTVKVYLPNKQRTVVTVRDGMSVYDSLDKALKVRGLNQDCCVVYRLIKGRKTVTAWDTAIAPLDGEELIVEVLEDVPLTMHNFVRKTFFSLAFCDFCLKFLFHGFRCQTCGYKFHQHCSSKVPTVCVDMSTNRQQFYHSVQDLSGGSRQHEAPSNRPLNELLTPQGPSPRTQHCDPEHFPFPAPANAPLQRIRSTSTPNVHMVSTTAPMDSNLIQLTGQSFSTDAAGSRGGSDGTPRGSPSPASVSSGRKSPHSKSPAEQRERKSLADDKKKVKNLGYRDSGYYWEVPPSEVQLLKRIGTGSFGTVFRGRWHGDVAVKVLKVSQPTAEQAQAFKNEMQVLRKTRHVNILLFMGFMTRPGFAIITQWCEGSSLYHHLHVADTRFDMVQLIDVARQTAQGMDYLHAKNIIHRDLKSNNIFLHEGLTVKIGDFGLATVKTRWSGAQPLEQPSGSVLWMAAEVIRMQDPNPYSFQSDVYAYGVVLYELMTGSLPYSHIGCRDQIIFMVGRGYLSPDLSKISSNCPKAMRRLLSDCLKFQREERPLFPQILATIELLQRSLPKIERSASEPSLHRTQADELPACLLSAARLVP
Also: in the data inactive means no Kd found up to 30 µM.

Sequence of Tyrosine-protein kinase Lyn (P07948 whole entry): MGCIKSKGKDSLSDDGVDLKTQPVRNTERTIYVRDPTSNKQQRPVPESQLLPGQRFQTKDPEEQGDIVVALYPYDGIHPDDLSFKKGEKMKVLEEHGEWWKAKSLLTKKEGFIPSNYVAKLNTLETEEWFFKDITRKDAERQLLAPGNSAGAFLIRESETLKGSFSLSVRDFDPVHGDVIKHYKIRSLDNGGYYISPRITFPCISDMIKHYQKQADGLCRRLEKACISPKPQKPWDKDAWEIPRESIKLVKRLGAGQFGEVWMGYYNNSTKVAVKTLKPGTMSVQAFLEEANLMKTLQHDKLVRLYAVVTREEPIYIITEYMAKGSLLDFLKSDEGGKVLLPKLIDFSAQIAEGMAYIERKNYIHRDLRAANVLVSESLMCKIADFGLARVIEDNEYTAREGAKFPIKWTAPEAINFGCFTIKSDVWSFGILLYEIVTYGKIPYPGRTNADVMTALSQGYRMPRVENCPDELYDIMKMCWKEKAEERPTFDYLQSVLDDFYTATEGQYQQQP
Sequence of Serine/threonine-protein kinase 16 (O75716 whole entry): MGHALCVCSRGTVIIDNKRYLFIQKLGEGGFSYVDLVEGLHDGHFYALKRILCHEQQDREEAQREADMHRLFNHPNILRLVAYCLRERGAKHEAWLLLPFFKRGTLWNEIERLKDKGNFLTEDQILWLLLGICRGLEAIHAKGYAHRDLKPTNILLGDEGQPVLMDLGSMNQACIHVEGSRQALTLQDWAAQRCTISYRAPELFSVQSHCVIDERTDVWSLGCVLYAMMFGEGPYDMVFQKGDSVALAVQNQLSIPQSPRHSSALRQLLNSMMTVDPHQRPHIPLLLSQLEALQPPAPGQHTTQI

| Structure (SMILES) | Kd [1] | Kd (Pyridoxal kinase) | Kd [2] | Kd [3] | Kd [4] | Kd [5] |
| --- | --- | --- | --- | --- | --- | --- |
| COc1c(OCCCN2CCOCC2)ccc2c1N=C(NC(=O)c1cnc(N)nc1)N1CCN=C21 [COPANLISIB] | > 30 µM (inactive) | > 30 µM (inactive) | > 30 µM (inactive) | > 30 µM (inactive) | > 30 µM (inactive) | > 30 µM (inactive) |
| COCC(=O)NC/C=C/c1ccc2ncnc(Nc3ccc(Oc4ccc(C)nc4)c(C)c3)c2c1 [CP-724714] | > 30 µM (inactive) | > 30 µM (inactive) | > 30 µM (inactive) | > 30 µM (inactive) | > 30 µM (inactive) | > 30 µM (inactive) |
| CCS(=O)(=O)N1CCN(c2ccc(Nc3ncc(C(N)=O)c(NC4CC4)n3)cc2)CC1 [Cerdulatinib Hydrochloride] | > 30 µM (inactive) | > 30 µM (inactive) | > 30 µM (inactive) | > 30 µM (inactive) | > 30 µM (inactive) | > 30 µM (inactive) |
| O=C(Nc1nc2cccc(-c3ccc(CN4CCS(=O)(=O)CC4)cc3)n2n1)C1CC1 [FILGOTINIB] | > 30 µM (inactive) | > 30 µM (inactive) | > 30 µM (inactive) | > 30 µM (inactive) | > 30 µM (inactive) | > 30 µM (inactive) |
| CNC(=O)c1cccc2cc(Oc3ccnc4cc(OCC5(N)CC5)c(OC)cc34)ccc12 [LUCITANIB] | 2.76 µM (active) | 16.4 µM (active) | > 30 µM (inactive) | > 30 µM (inactive) | > 30 µM (inactive) | > 30 µM (inactive) |
| CNC(=O)c1nn(C)c2c1C(C)(C)Cc1cnc(Nc3ccc(N4CCN(C)CC4)cc3)nc1-2 [MILCICLIB] | 3.54 µM (active) | > 30 µM (inactive) | 1.1 µM (active) | > 30 µM (inactive) | 0.685 µM (active) | > 30 µM (inactive) |
| FC(F)(F)c1ccc(/C=C/c2nc(COc3ccc(CCCCn4ccnn4)cc3)co2)cc1 [MUBRITINIB] | > 30 µM (inactive) | > 30 µM (inactive) | > 30 µM (inactive) | > 30 µM (inactive) | > 30 µM (inactive) | > 30 µM (inactive) |
| COc1ncc(-c2ccc3nccc(-c4ccnnc4)c3c2)cc1NS(=O)(=O)c1ccc(F)cc1F [OMIPALISIB] | > 30 µM (inactive) | > 30 µM (inactive) | > 30 µM (inactive) | > 30 µM (inactive) | > 30 µM (inactive) | > 30 µM (inactive) |
| CCOc1cc2ncc(C#N)c(Nc3ccc(F)c(Cl)c3)c2cc1NC(=O)/C=C/CN(C)C [PELITINIB] | > 30 µM (inactive) | > 30 µM (inactive) | > 30 µM (inactive) | > 30 µM (inactive) | 1.19 µM (active) | > 30 µM (inactive) |
| Cc1cnc(NC(=O)Nc2cc(Br)c(C)cc2OC[C@@H]2CNCCO2)cn1 [RABUSERTIB] | > 30 µM (inactive) | > 30 µM (inactive) | > 30 µM (inactive) | > 30 µM (inactive) | > 30 µM (inactive) | > 30 µM (inactive) |
| CO[C@H]1C[C@@H]2CC[C@@H](C)[C@@](O)(O2)C(=O)C(=O)N2CCCC[C@H]2C(=O)O[C@H]([C@H](C)C[C@@H]2CC[C@@H](OP(C)(C)=O)[C@H](OC)C2)CC(=O)[C@H](C)/C=C(\C)[C@@H](O)[C@@H](OC)C(=O)[C@H](C)C[C@H](C)/C=C/C=C/C=C/1C [RIDAFOROLIMUS] | > 30 µM (inactive) | > 30 µM (inactive) | > 30 µM (inactive) | > 30 µM (inactive) | > 30 µM (inactive) | > 30 µM (inactive) |
| N#CC1(c2ccc(NC(=O)c3cccnc3NCc3ccncc3)cc2)CCCC1 [RIVOCERANIB] | > 30 µM (inactive) | > 30 µM (inactive) | > 30 µM (inactive) | > 30 µM (inactive) | > 30 µM (inactive) | > 30 µM (inactive) |

Now from value to molecule:

| Kd [1] | Kd (Pyridoxal kinase) | Kd [2] | Kd [3] | Kd [4] | Kd [5] | Structure (SMILES) |
| --- | --- | --- | --- | --- | --- | --- |
| > 30 µM (inactive) | > 30 µM (inactive) | > 30 µM (inactive) | > 30 µM (inactive) | > 30 µM (inactive) | > 30 µM (inactive) | C#Cc1cccc(Nc2ncnc3cc(OC)c(OCCCCCCC(=O)NO)cc23)c1 [CUDC-101] |
| > 30 µM (inactive) | > 30 µM (inactive) | > 30 µM (inactive) | > 30 µM (inactive) | > 30 µM (inactive) | > 30 µM (inactive) | CCn1cc(-c2ccnc3[nH]c(-c4cccc(CN(C)C)c4)cc23)c(-c2ccc(NC(=O)N(C)C)cc2)n1 [GSK-1070916] |
| > 30 µM (inactive) | > 30 µM (inactive) | > 30 µM (inactive) | > 30 µM (inactive) | > 30 µM (inactive) | > 30 µM (inactive) | COc1ccc(S(=O)(=O)N(C(C)=O)c2ccccc2/C=C/c2cc[n+]([O-])cc2)cc1 [HMN-214] |
| > 30 µM (inactive) | > 30 µM (inactive) | > 30 µM (inactive) | > 30 µM (inactive) | > 30 µM (inactive) | > 30 µM (inactive) | NC1(c2ccc(-c3nc4ccn5c(=O)[nH]nc5c4cc3-c3ccccc3)cc2)CCC1 [MK-2206] |
| > 30 µM (inactive) | > 30 µM (inactive) | > 30 µM (inactive) | > 30 µM (inactive) | > 30 µM (inactive) | > 30 µM (inactive) | Cn1cc(-c2cnc3ccc4ccc(CS(=O)(=O)NCc5ccccn5)cc4c(=O)c3c2)cn1 [MK-8033] |
| > 30 µM (inactive) | > 30 µM (inactive) | 5.45 µM (active) | 0.029 µM (active) | 1.28 µM (active) | > 30 µM (inactive) | Cc1nc(Nc2n[nH]c3c2CN(C(=O)N[C@H](CN(C)C)c2ccccc2)C3(C)C)c2sccc2n1 [PF-03758309] |
